Tested on: KRAS patient-derived spheroids with HUVEC/MSC, viability
Test: Anticancer human tumor 323965-272-R-J2-PDC patient-derived pancreatic carcinoma cell line growth inhibition [KRAS2]
Details: for viability, T/C: stronger effect = lower value
Method in brief: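 Combination screen of spheroid viability in tumor-cell co-cultures with endothelial (HUVEC) and mesenchymal stem cell stroma. Each agent was tested in half-log dilutions, topping at clinical Cmax or at 10 microM without a known Cmax.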

[1] = curve of first compound, second compound 0.1 µM
[2] = curve of first compound, second compound 0.316 µM
[3] = curve of first compound, second compound 1 µM
[4] = curve of first compound, second compound 3.16 µM
[5] = curve of first compound, second compound 10 µM
[6] = second compound 0.1 µM, first compound 0.0316 µM
[7] = second compound 0.1 µM, first compound 0.1 µM
[8] = second compound 0.1 µM, first compound 0.316 µM
[9] = second compound 0.1 µM, first compound 1 µM
[10] = second compound 0.1 µM, first compound 3.16 µM
[11] = second compound 0.1 µM, first compound 10 µM
[12] = second compound 0.316 µM, first compound 0.0316 µM
[13] = second compound 0.316 µM, first compound 0.1 µM
[14] = second compound 0.316 µM, first compound 0.316 µM
[15] = second compound 0.316 µM, first compound 1 µM
[16] = second compound 0.316 µM, first compound 3.16 µM
[17] = second compound 0.316 µM, first compound 10 µM
[18] = second compound 1 µM, first compound 0.0316 µM
[19] = second compound 1 µM, first compound 0.1 µM
[20] = second compound 1 µM, first compound 0.316 µM
[21] = second compound 1 µM, first compound 1 µM
[22] = second compound 1 µM, first compound 3.16 µM
[23] = second compound 1 µM, first compound 10 µM
[24] = second compound 3.16 µM, first compound 0.0316 µM
[25] = second compound 3.16 µM, first compound 0.1 µM
[26] = second compound 3.16 µM, first compound 0.316 µM
[27] = second compound 3.16 µM, first compound 1 µM
[28] = second compound 3.16 µM, first compound 3.16 µM
[29] = second compound 3.16 µM, first compound 10 µM
[30] = second compound 10 µM, first compound 0.0316 µM
[31] = second compound 10 µM, first compound 0.1 µM
[32] = second compound 10 µM, first compound 0.316 µM
[33] = second compound 10 µM, first compound 1 µM
[34] = second compound 10 µM, first compound 3.16 µM
[35] = second compound 10 µM, first compound 10 µM
[36] = curve of first compound, second compound 0.0316 µM
[37] = second compound 0.0316 µM, first compound 0.0316 µM
[38] = second compound 0.0316 µM, first compound 0.1 µM
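Further: spheroids exposed to agents for 7 days.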
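Wherever viability, T/C is given: 100% = DMSO vehicle control viability.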

SMILES: CC(C)NCC(C(=O)N1CCN(c2ncnc3c2C(C)CC3O)CC1)c1ccc(Cl)cc1 (configuration not stated) + CNCc1ccccc1-c1csc(C(C)Nc2nc(C)nc3cc(OC)c(OC)cc23)c1
- IC50 [1]: 1570 nM
- IC50 [2]: 1060 nM
- IC50 [3]: 1330 nM
- IC50 [4]: 532 nM
- IC50 [5]: < 31.6 nM
- viability, T/C [6]: 90.9%
- viability, T/C [7]: 85.4%
- viability, T/C [8]: 70.6%
- viability, T/C [9]: 55.8%
- viability, T/C [10]: 41.7%
- viability, T/C [11]: 36%
- viability, T/C [12]: 94.2%
- viability, T/C [13]: 85.2%
- viability, T/C [14]: 72.9%
- viability, T/C [15]: 48.1%
- viability, T/C [16]: 41.4%
- viability, T/C [17]: 33%
- viability, T/C [18]: 94.9%
- viability, T/C [19]: 91.8%
- viability, T/C [20]: 79.9%
- viability, T/C [21]: 54.4%
- viability, T/C [22]: 36.7%
- viability, T/C [23]: 32.9%
- viability, T/C [24]: 88.3%
- viability, T/C [25]: 73.2%
- viability, T/C [26]: 58.5%
- viability, T/C [27]: 43%
- viability, T/C [28]: 21.5%
- viability, T/C [29]: 18%
- viability, T/C [30]: 0.27%
- viability, T/C [31]: 0.28%
- viability, T/C [32]: 0.23%
- viability, T/C [33]: 0.59%
- viability, T/C [34]: 0.71%
- viability, T/C [35]: 0.19%

SMILES: CC(C)NCC(C(=O)N1CCN(c2ncnc3c2C(C)CC3O)CC1)c1ccc(Cl)cc1 (configuration not stated) + C=CC(=O)N1CCN(c2nc(OCC3CCCN3C)nc3c2CCN(c2cccc4cccc(C)c24)C3)CC1CC#N
- IC50 [36]: 489 nM
- IC50 [1]: 251 nM
- IC50 [2]: 132 nM
- IC50 [3]: 118 nM
- IC50 [4]: < 31.6 nM
- viability, T/C [37]: 64.4%
- viability, T/C [38]: 62.4%
- viability, T/C (second compound 0.0316 µM, first compound 0.316 µM): 54.3%
- viability, T/C (second compound 0.0316 µM, first compound 1 µM): 42.2%
- viability, T/C (second compound 0.0316 µM, first compound 3.16 µM): 35.7%
- viability, T/C (second compound 0.0316 µM, first compound 10 µM): 29.8%
- viability, T/C [6]: 64.5%
- viability, T/C [7]: 54.9%
- viability, T/C [8]: 50.2%
- viability, T/C [9]: 39.2%
- viability, T/C [10]: 30.8%
- viability, T/C [11]: 29.1%
- viability, T/C [12]: 58.8%
- viability, T/C [13]: 50.6%
- viability, T/C [14]: 44.1%
- viability, T/C [15]: 31.8%
- viability, T/C [16]: 26.2%
- viability, T/C [17]: 26.3%
- viability, T/C [18]: 57.7%
- viability, T/C [19]: 53.6%
- viability, T/C [20]: 38.6%
- viability, T/C [21]: 33.4%
- viability, T/C [22]: 26.4%
- viability, T/C [23]: 23.1%
- viability, T/C [24]: 10.2%
- viability, T/C [25]: 6.16%
- viability, T/C [26]: 5.23%
- viability, T/C [27]: 4.82%
- viability, T/C [28]: 3.02%
- viability, T/C [29]: 1.82%

SMILES: CN(C)C/C=C/C(=O)Nc1cc2c(Nc3ccc(F)c(Cl)c3)ncnc2cc1O[C@H]1CCOC1 + C=CC(=O)N1CCN(c2nc(OCC3CCCN3C)nc3c2CCN(c2cccc4cccc(C)c24)C3)CC1CC#N
- IC50 [36]: 13 nM
- IC50 [1]: 1.77 nM
- IC50 [2]: 2.3 nM
- IC50 [3]: 2.3 nM
- IC50 [4]: < 0.316 nM
- viability, T/C (second compound 0.0316 µM, first compound 0.000316 µM): 75.1%
- viability, T/C (second compound 0.0316 µM, first compound 0.001 µM): 66.2%
- viability, T/C (second compound 0.0316 µM, first compound 0.00316 µM): 55.9%
- viability, T/C (second compound 0.0316 µM, first compound 0.01 µM): 49.6%
- viability, T/C [37]: 49.9%
- viability, T/C [38]: 47.9%
- viability, T/C (second compound 0.1 µM, first compound 0.000316 µM): 66%
- viability, T/C (second compound 0.1 µM, first compound 0.001 µM): 52.5%
- viability, T/C (second compound 0.1 µM, first compound 0.00316 µM): 48.4%
- viability, T/C (second compound 0.1 µM, first compound 0.01 µM): 42.4%
- viability, T/C [6]: 40.9%
- viability, T/C [7]: 42.3%
- viability, T/C (second compound 0.316 µM, first compound 0.000316 µM): 56.2%
- viability, T/C (second compound 0.316 µM, first compound 0.001 µM): 51.1%
- viability, T/C (second compound 0.316 µM, first compound 0.00316 µM): 53.2%
- viability, T/C (second compound 0.316 µM, first compound 0.01 µM): 43.1%
- viability, T/C [12]: 39.2%
- viability, T/C [13]: 39.1%
- viability, T/C (second compound 1 µM, first compound 0.000316 µM): 62.5%
- viability, T/C (second compound 1 µM, first compound 0.001 µM): 52.4%
- viability, T/C (second compound 1 µM, first compound 0.00316 µM): 52.6%
- viability, T/C (second compound 1 µM, first compound 0.01 µM): 41.9%
- viability, T/C [18]: 40.7%
- viability, T/C [19]: 42.5%
- viability, T/C (second compound 3.16 µM, first compound 0.000316 µM): 36.8%
- viability, T/C (second compound 3.16 µM, first compound 0.001 µM): 34.9%
- viability, T/C (second compound 3.16 µM, first compound 0.00316 µM): 19.4%
- viability, T/C (second compound 3.16 µM, first compound 0.01 µM): 17.3%
- viability, T/C [24]: 17%
- viability, T/C [25]: 14.7%

SMILES: COc1cc(Nc2ncc3c(n2)-c2ccc(Cl)cc2C(c2c(F)cccc2OC)=NC3)ccc1C(=O)O + COc1cc2nc(C)nc(NC(C)c3cc(N)cc(C(F)(F)F)c3)c2cc1OC1CCOC1
- IC50 [1]: 92.4 nM
- IC50 [2]: 73.5 nM
- IC50 [3]: < 31.6 nM
- IC50 [4]: < 31.6 nM
- IC50 [5]: < 31.6 nM
- viability, T/C [6]: 76.5%
- viability, T/C [7]: 47.3%
- viability, T/C [8]: 35.6%
- viability, T/C [9]: 44.1%
- viability, T/C [10]: 53.4%
- viability, T/C [11]: 59.1%
- viability, T/C [12]: 66.2%
- viability, T/C [13]: 45.3%
- viability, T/C [14]: 35.7%
- viability, T/C [15]: 37.5%
- viability, T/C [16]: 51.5%
- viability, T/C [17]: 58.5%
- viability, T/C [18]: 62.2%
- viability, T/C [19]: 39.6%
- viability, T/C [20]: 33%
- viability, T/C [21]: 38.8%
- viability, T/C [22]: 44.9%
- viability, T/C [23]: 51.2%
- viability, T/C [24]: 56.8%
- viability, T/C [25]: 34.4%
- viability, T/C [26]: 28.4%
- viability, T/C [27]: 37.8%
- viability, T/C [28]: 44.3%
- viability, T/C [29]: 51.1%
- viability, T/C [30]: 63.4%
- viability, T/C [31]: 20.3%
- viability, T/C [32]: 24%
- viability, T/C [33]: 41.6%
- viability, T/C [34]: 42.8%
- viability, T/C [35]: 36.9%

SMILES: CC1(C)CCC(CN2CCN(c3ccc(C(=O)NS(=O)(=O)c4ccc(NCC5CCOCC5)c([N+](=O)[O-])c4)c(Oc4cnc5[nH]ccc5c4)c3)CC2)=C(c2ccc(Cl)cc2)C1 + C=CC(=O)N1CCN(c2nc(=O)n(-c3c(C)ccnc3C(C)C)c3nc(-c4c(O)cccc4F)c(F)cc23)C(C)C1
- IC50 [1]: 1100 nM
- IC50 [2]: 1320 nM
- IC50 [3]: 1260 nM
- IC50 [4]: 1210 nM
- IC50 [5]: 81.8 nM
- viability, T/C [6]: 59.2%
- viability, T/C [7]: 59.6%
- viability, T/C [8]: 63.3%
- viability, T/C [9]: 52.7%
- viability, T/C [10]: 17%
- viability, T/C [11]: 4.37%
- viability, T/C [12]: 64.6%
- viability, T/C [13]: 58.1%
- viability, T/C [14]: 56.3%
- viability, T/C [15]: 60.4%
- viability, T/C [16]: 18.8%
- viability, T/C [17]: 5.39%
- viability, T/C [18]: 61.1%
- viability, T/C [19]: 61.9%
- viability, T/C [20]: 60.3%
- viability, T/C [21]: 59.5%
- viability, T/C [22]: 12%
- viability, T/C [23]: 2.97%
- viability, T/C [24]: 62%
- viability, T/C [25]: 62.3%
- viability, T/C [26]: 57.8%
- viability, T/C [27]: 56.9%
- viability, T/C [28]: 15.8%
- viability, T/C [29]: 5.2%
- viability, T/C [30]: 61%
- viability, T/C [31]: 37.6%
- viability, T/C [32]: 43.4%
- viability, T/C [33]: 36.3%
- viability, T/C [34]: 15.8%
- viability, T/C [35]: 2.88%

SMILES: COc1cc(OC)cc(N(CCNC(C)C)c2ccc3ncc(-c4cnn(C)c4)nc3c2)c1
- viability, T/C (compound 0.0316 µM): 102% [middle of 5 runs]
- viability, T/C (compound 0.1 µM): 101% [middle of 5 runs]
- viability, T/C (compound 0.316 µM): 102% [middle of 5 runs]
- viability, T/C (compound 1 µM): 103% [middle of 5 runs]
- viability, T/C (compound 3.16 µM): 105% [middle of 5 runs]
- viability, T/C (compound 10 µM): 87.5% [middle of 5 runs]
- IC50 (curve of compound): > 10000 nM

Reference: PubChem BioAssay AID1963869 (Molecular Pharmacology Branch, DTP, NCI, 2024)
